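In this assay, cells in 96-well plates receive the compound at five concentrations for 48 hours. Endpoints are linearly interpolated between the surrounding concentrations. Definition used: TGI = concentration required for complete inhibition of growth.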
Experiments:
Assay in all cases: NCI tumour cell line growth inhibition, 48 h
A498 renal = system: A498 renal
ACHN renal = system: ACHN renal
HL-60(TB) leukemia = system: HL-60(TB) leukemia
HS 578T breast = system: HS 578T breast
HT29 colon = system: HT29 colon
LOX IMVI melanoma = system: LOX IMVI melanoma
MDA-N = system: MDA-N
OVCAR-3 ovarian = system: OVCAR-3 ovarian
RPMI-8226 leukemia = system: RPMI-8226 leukemia
T-47D breast = system: T-47D breast

Row | SMILES | TGI (A498 renal) | TGI (ACHN renal) | TGI (HL-60(TB) leukemia) | TGI (HS 578T breast) | TGI (HT29 colon) | TGI (LOX IMVI melanoma) | TGI (MDA-N) | TGI (OVCAR-3 ovarian) | TGI (RPMI-8226 leukemia) | TGI (T-47D breast)
1 | O=S(=O)(O)c1cc(O)c(N=NC2S(=O)(=O)OCCOS2(=O)=O)c2ccccc12 | > 100 µM | > 100 µM | > 100 µM | > 100 µM | > 100 µM | > 100 µM | > 100 µM | > 100 µM | > 100 µM | > 100 µM
2 | CCOC(=O)c1nc(SC)sc1NC(=O)c1ccc(OC)cc1 | 84.6 µM | > 100 µM | > 100 µM | > 100 µM | > 100 µM | > 100 µM | > 100 µM | > 100 µM | > 100 µM | > 100 µM
3 | CC1=C[C@H](C[C@]2(C)c3c(c4c(C)cccc4oc3=O)O[C@@H]2C)OC1=O | > 100 µM | > 100 µM | 52.5 µM | > 100 µM | > 100 µM | > 100 µM | > 100 µM | > 100 µM | 18.1 µM | > 100 µM
4 | Cc1cc(C)c2c(-c3ccccc3)cc(=O)[nH]c2c1 | > 100 µM | > 100 µM | > 100 µM | > 100 µM | > 100 µM | > 100 µM | > 100 µM | > 100 µM | > 100 µM | > 100 µM
5 | COc1cc2ncnc(Nc3cccc(Br)c3)c2cc1OC | 29.4 µM | > 100 µM | > 75.2 µM | 53.2 µM | 18.8 µM | 10.2 µM | > 42.9 µM | 45.4 µM | > 100 µM | 48 µM
6 | Fc1ccc(F)c(C=NC23CC4CC(CC(C4)C2)C3)c1 | > 10 µM | > 10 µM | 6.94 µM | > 10 µM | > 10 µM | > 10 µM | > 10 µM | > 10 µM | > 10 µM | > 10 µM
7 | O=C(Nc1ccc(Cl)cc1)c1cc(S(=O)(=O)Nc2nc3ncccc3[nH]2)c(SSc2cc(Cl)c(C(=O)Nc3ccc(Cl)cc3)cc2S(=O)(=O)Nc2nc3ncccc3[nH]2)cc1Cl | > 100 µM | > 100 µM | > 100 µM | > 100 µM | > 100 µM | > 100 µM | > 100 µM | > 100 µM | > 100 µM | > 100 µM
8 | CCCCOC(=O)Nc1ccc(S(=O)(=O)Nc2c(Cl)cccc2Cl)cc1 | 63.1 µM | > 100 µM | > 100 µM | > 100 µM | 32 µM | > 100 µM | > 100 µM | 73.5 µM | 41.5 µM | 83.8 µM
9 | COc1cc(O)c2c(=O)c3cccc(C)c3[nH]c2c1 | > 10 µM | > 10 µM | > 10 µM | > 10 µM | > 10 µM | > 10 µM | > 10 µM | > 10 µM | > 10 µM | > 10 µM
10 | CCOC(=O)CCCN | > 100 µM | > 100 µM | > 100 µM | > 100 µM | > 100 µM | > 100 µM | > 100 µM | > 100 µM | > 100 µM | > 100 µM
11 | CC(=O)N1N=C(c2ccccc2)NC(=O)C1c1cc(C)c(O)c(C)c1 (stereo not given) | 67.2 µM | 44 µM | > 100 µM | > 100 µM | > 100 µM | > 100 µM | > 100 µM | 36.7 µM | > 100 µM | 42 µM
12 | O=c1[nH]nc(-c2ccc3ccccc3c2)[nH]1 | > 100 µM | > 100 µM | > 100 µM | 24.2 µM | > 100 µM | > 100 µM | > 100 µM | > 100 µM | > 100 µM | > 100 µM
13 | Cc1ccc2[nH]c3c(c2c1)C1CCC(C(C)(C)C)CC1C1C(=O)N(c2ccc(Oc4ccccc4)cc2)C(=O)C31 (stereo not given) | 31.5 µM | > 100 µM | 8.09 µM | 8.28 µM | > 100 µM | > 100 µM | > 100 µM | 35.4 µM | 40.5 µM | > 68.2 µM
14 | CCOC(=O)N1CCC2(CC1)C[C@](Sc1ccccc1)(C(C)=O)[C@H](C)O2 | > 100 µM | > 100 µM | > 100 µM | > 100 µM | > 100 µM | > 100 µM | > 100 µM | > 100 µM | > 100 µM | > 100 µM
15 | CCCCCCc1cc2cc(C(=O)Nc3nc(C45CC6CC(CC(C6)C4)C5)cs3)c(=O)oc2cc1O | 31.3 µM | 20.8 µM | 19.8 µM | 46.9 µM | > 100 µM | 30.9 µM | 40.2 µM | 39.4 µM | 39 µM | 38.1 µM
16 | CCOC(=O)Cn1nnc2ccc(Nc3nc4ccccc4nc3C(=O)OCC)cc21 | > 100 µM | > 100 µM | > 100 µM | > 100 µM | > 100 µM | > 100 µM | > 100 µM | > 100 µM | > 100 µM | > 100 µM
17 | O=[N+]([O-])C1=Cc2c(O)ccc(O)c2C2OC=CC12 (stereo not given) | 30.1 µM | 29.1 µM | > 30.4 µM | 61.6 µM | 43.8 µM | 42.6 µM | 11.4 µM | 21.3 µM | > 100 µM | > 71.9 µM
18 | C[C@]12CCC(=O)C=C1CC[C@@H]1[C@@H]2CC[C@]2(C)C(=O)/C(=C/c3ccc([N+](=O)[O-])cc3)C[C@@H]12 | 48.9 µM | 19.9 µM | > 100 µM | > 100 µM | > 100 µM | > 100 µM | > 100 µM | > 100 µM | > 100 µM | > 100 µM
19 | Nc1nc(N)c2cc(-c3cc4ccccc4[nH]3)ccc2n1 | 32.7 µM | 33.3 µM | 47.7 µM | > 100 µM | 38.9 µM | 36.3 µM | 40.7 µM | > 100 µM | 32.4 µM | 21.7 µM
20 | CC1=NN(c2ccccc2)C(=O)/C1=C1\SC(c2ccccc2)(c2ccccc2)c2ccccc21 | > 100 µM | > 100 µM | > 100 µM | > 100 µM | > 100 µM | > 100 µM | > 100 µM | > 100 µM | > 100 µM | > 100 µM
21 | O=C(CSc1nc2ccccc2c(=O)n1-c1ccccc1)N=Nc1c(O)[nH]c2ccc(Br)cc12 | 40.8 µM | > 94.5 µM | 12.8 µM | > 100 µM | 3.7 µM | > 31.5 µM | 16.9 µM | 20 µM | > 38 µM | 28.6 µM
22 | N#C/C=C(/NC(=O)Nc1ccccc1)N1CCCC1 | > 100 µM | > 57.3 µM | > 100 µM | > 100 µM | > 100 µM | 97.4 µM | > 100 µM | > 100 µM | > 100 µM | > 100 µM
23 | COc1nc2ncc([C@@H](OC(C)=O)[C@@H](COC(C)=O)OC(C)=O)nc2c(=O)n1C | > 100 µM | > 100 µM | 87.8 µM | > 100 µM | > 100 µM | > 100 µM | > 100 µM | > 100 µM | > 100 µM | > 100 µM
24 | C/C(=N/NC(=S)N1CCCCCC1)c1cccc(/C(C)=N\NC(=S)N2CCCCCC2)n1 | 2.85 µM | 2.87 µM | 5.26 µM | 8.82 µM | 4.65 µM | 3.41 µM | 4.9 µM | 2.59 µM | 5.33 µM | 5.95 µM
25 | Cc1cc2c(cc1Cl)SSc1cc(Cl)c(C)cc1S(=O)(=O)Nc1nc(N)nn1C(O)n1nc(N)nc1NS2(=O)=O | > 10 µM | > 10 µM | > 10 µM | > 10 µM | > 10 µM | > 10 µM | > 10 µM | > 10 µM | > 10 µM | > 10 µM
26 | C[N+](C)(N)Cc1nc(-c2ccc(Cl)cc2)no1 | > 100 µM | > 100 µM | > 100 µM | > 100 µM | > 100 µM | > 100 µM | > 100 µM | > 100 µM | > 100 µM | > 100 µM

From PubChem BioAssay (NCI)
